Data as given in US7629318B2, “Immunosuppressant compounds, methods and uses related thereto” (priority 2002, dated 2009).
Numbered stars: 1 amine (or outer) side, 2 acyl side, 3 side chain; on linkers, the order of the positions; unused ones are H or OH. Square brackets hold non-standard residues; d marks the D form. Peptide text beside a SMILES is read from it. * marks the point of attachment. ξ: configuration not given here. Gly(1-amidinopiperidin-4-yl) = N=C(N)N1CCC([C@H](N)C(=O)O)CC1; X1 = CC(C)c1oc([C@H](CO)N[*:1])nc1C(=O)[*:2]; Pro(3R-Ph) = O=C(O)[C@H]1NCC[C@@H]1c1ccccc1; Tic = O=C(O)[C@@H]1Cc2ccccc2CN1; Cha = N[C@@H](CC1CCCCC1)C(=O)O; NHPhenethyl = c1ccc(CCN*)cc1; NMe(benzyl) = CN(Cc1ccccc1)*; ξDisc = O=C(O)C1NCc2ccccc21; Nle = CCCC[C@H](N)C(=O)O; X2 = OCCOCCN(Cc1ccccc1)*; NHBn = c1ccc(CN*)cc1; X3 = OCCOCCN*

Legend:
[1] = molecular target: Cathepsin L (Homo sapiens, UniProt P07711)
Chain of Cathepsin L (P07711 114-333): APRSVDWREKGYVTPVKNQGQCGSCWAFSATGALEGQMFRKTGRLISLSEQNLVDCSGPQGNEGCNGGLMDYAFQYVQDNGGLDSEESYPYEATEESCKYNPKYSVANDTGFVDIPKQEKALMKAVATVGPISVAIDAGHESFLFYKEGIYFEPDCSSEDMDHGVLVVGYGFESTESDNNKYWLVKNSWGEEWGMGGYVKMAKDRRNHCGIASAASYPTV

[2] = system: T cell activation from 0401(DR4) chimeric MHCII-mice; test: In vivo inhibition of T cell activation by co-immunisation, DR4 mice immunised with HEL; design: species or system mouse; % Reduction of response to PPD(HEL): concentration or dose not given beside the values; settings: for % Reduction of response to HEL: DR4 mice co-immunised with HEL plus compound, mean % inhibition from the control over 3 concentrations of antigen (6.7, 20 and 60 ug); for % Reduction of response to PPD(HEL): specificity control: response to PPD in the same cell pool, HEL co-immunised mice
Text: (§1) Mouse strains DR4 and DR14 carry chimeric MHC-II transgenes that encode the N-terminal domains of the respective DR molecules (forming the peptide binding site) and the remaining (2nd extracellular domains, transmembrane and intracytoplasmic domains) of the murine class II molecule I Ed. These strains are deficient of other murine class II, and thus, all helper T cell responses are triggered by peptides presented in the respective human MHC-II binding site. As an initial in vivo test of subject inhibitors designed to bind to DR, DR-transgenic mice were co-immunized with a pre-defined dose of protein antigen and different amounts of the compound antagonist to be tested. In this set-up, both antigen and compound were emulsified together in complete Freund's adjuvant (CFA), and thus, a direct competition between the two components for presentation by DR was tested. Readout of the assay is ex vivo antigen-specific activation of T cells from regional lymph nodes explanted 9 days after co-immunization. In a typical experiment, antigen dose-response was investigated, and the curves from mice immunized with antigen were compared to those from mice co-immunized with antigen+compound. The dose response curves were generated using lymph node cells pooled at equal numbers from 2-3 mice per experimental group. The experimental system also permits assessment of inherent antigenicity of the compound antagonist. This was done by setting up a dose-response study from the same cell pool using different concentrations of the compund under investigation instead of the antigen. As a specificity control, the response to Purified Protein Derivative (PPD), the major protein component of CFA, was tested in the same cell pool.
(§2) All Gpg conataining compounds have significant immunosupressive properties in one or both of the in-vivo models. Gpg-containing compounds also show improved activity or improved specificity over the Arg-containing equivilent. Further, compounds according to Formula I show activity in this assay.
(§3) Compounds of the invention were injected as an Emulsion prepared using CFA (Bacto Adjuvant Complete H37 Ra, Difco, Order-No. 3113-60); proteins 10 mg/ml in PBS, inhibitors 5 μM in 10% DMSO. CFA, PBS, antigen, and inhibitor were placed in the barrel of a 5-ml syringe (total volume not more than 1 mL). The mixture was sonicated at an amplitude less than 40% (30-35%) for two separated 15 s periods. The emulsion should seem to be hard and not liquid at this point. A drop of emulsion placed on the surface of water should not melt. The resulting emulsion was pushed through the needle into a 1 ml syringe with a needle (Gr.18, 26G×1″), and air bubbles were removed. Mice were co-immunized with 50 μg protein and 210 nM compound antagonist in final 100 μl emulsion into the tail base. Antigen+Compound and CFA are mixed 1:1 vol/vol. The best results are obtained using DR 4 mice immunised with HEL and DR 14 mice immunized with OVA.
(§4) Mice were injected at the tail-base as follows: Holding the tail of a mouse with thumb and middle finger, the index finger was placed under the base of the mouse's tail. The needle of the syringe was inserted about 1.5 cm from the tail base (hairy end) under the skin and pushed about 1 cm into the tail. 100 μl emulsion was injected into the mouse. After 9 days, mice were killed and lymph nodes removed.
(§5) The inhibitory effect of the candidate compounds on T-cell activation was tested using T-cells and antigen-presenting cells isolated from the lymph nodes of chimeric DR4-IE transgenic mice (Taconic, USA) previously co-immunized with hen egg lysozyme plus compound, or DR14-IE transgenic mice co-immunized with ovalbumin plus compound according to standard procedures (Adorini et al., 1988, Mueller et al., 1990; Current Protocols in Immunology, Vol. 2, 7.21; Ito et al., 1996). […]

[3] = system: DR4 transgenic mice, EAE induced by MOG; test: Experimental autoimmune encephalomyelitis (EAE) mouse model for multiple sclerosis; type: in vivo; settings: for efficacy in the EAE mouse model for multiple sclerosis prevention: compared to solvent as control, s.c.
Procedure: EAE is induced in DR4 transgenic mice by injection of myelin oligodendrocyte glycoprotein (MOG) as described by Ito et al. (1996). After disease onset, mice are treated with compounds and studied as below:
Disease Score • 1. Tail atony • 2. Hind limb weakness • 3. Hind limb paralysis • 4. Hind limb paralysis and fore limb weakness or paralysis • 5. Moribund

[4] = system: HLA-DR1 transgenic mice, collagen induced arthritis; test: Collagen induced arthritis (CIA) mouse model for rheumatoid arthritis; type: in vivo; settings: compared to solvent as control; s.c.
Procedure: CIA is induced by immunization with type II collagen in HLA-DR1 transgenic mice as described by Rosloniec et al (J. Exp. Med. 1997; 185: 113). After disease onset, mice are treated with compounds at the maximal tolerated dose s.c. for two weeks, and the disease development compared to that in mice treated with solvent only as follows:
Disease Severity Score • 1. Erythema and mild swelling confined to the tarsals or ankle joint • 2. Erythema and mild swelling extending from the ankle to the tarsals • 3. Erythema and moderate swelling extending from the ankle to the metatarsal joints • 4. Erythema and severe swelling encompass the ankle, foot, and digits

[5] = system: T cell activation from 0404(DR14) chimeric MHCII-mice; test: In vivo inhibition of T cell activation by co-immunisation, DR14 mice immunised with OVA; design: species or system mouse; % Reduction of response to PPD(OVA): concentration or dose not given beside the values; settings: for % Reduction of response to OVA: DR14 mice co-immunised with OVA plus compound, mean % inhibition from the control over 3 concentrations of antigen (6.7, 20 and 60 ug); for % Reduction of response to PPD(OVA): specificity control: response to PPD in the same cell pool, OVA co-immunised mice
Text: as §1, §2, §3, §4, §5

Row | Structure (SMILES) | % Reduction of response to HEL [2] [%] | % Reduction of response to PPD(HEL) [2] [%] | % Reduction of response to OVA [5] [%] | % Reduction of response to PPD(OVA) [5] [%] | further results
1 | CSCC[C@H](NC(=O)[C@@H]1Cc2ccccc2CN1C(=O)[C@H](CCCNC(=N)N)NC(=O)[C@H](CC1CCCCC1)NC(C)=O)C(N)=O [Compound P1, Ac-Cha-Arg-Tic-Met-NH2] (Ac-[Cha]R[Tic]M-NH2) | – | – | – | – | Stability (Arbitrary units) Cath L 4 h [1]: 117 Arbitrary units
2 | CCCC[C@H](NC(=O)[C@@H]1Cc2ccccc2CN1C(=O)[C@@H](NC(=O)[C@H](CC1CCCCC1)NC(C)=O)C1CCN(C(=N)N)CC1)C(=O)N1CC[C@H](c2ccccc2)[C@H]1C(=O)N[C@@H](CO)c1nc(C(=O)N(C)C)c(C(C)C)o1 [Compound P53, Ac-Cha-Gpg-Tic-Nle-βPhPro-[S(oxaz)L]-NMe2] (Ac-[Cha][Gly(1-amidinopiperidin-4-yl)][Tic][Nle][Pro(3R-Ph)][X1]-NMe2) | 68.4 | 10.2 | 56.3 | 26.8 | efficacy in the EAE mouse model for multiple sclerosis prevention [3]: Efficacy; efficacy in the CIA mouse model for rheumatoid arthritis [4]: Efficacy
3 | CCCC[C@H](NC(=O)[C@@H]1Cc2ccccc2CN1C(=O)[C@H](CCCNC(=N)N)NC(=O)[C@H](CC1CCCCC1)NC(C)=O)C(=O)N1CC[C@H](c2ccccc2)[C@H]1C(=O)N[C@@H](CO)c1nc(C(=O)N(C)C)c(C(C)C)o1 [Compound P51, Ac-Cha-Arg-Tic-Nle-βPhPro-[S(oxaz)L]-NMe2] (Ac-[Cha]R[Tic][Nle][Pro(3R-Ph)][X1]-NMe2) | – | – | 43.1 | 3.5 | –
4 | CCCC[C@H](NC(=O)[C@@H]1Cc2ccccc2CN1C(=O)[C@@H](NC(=O)[C@H](CC1CCCCC1)NC(C)=O)C1CCN(C(=N)N)CC1)C(=O)NCCOCCO [Compound P70, Ac-Cha-Gpg-Tic-Nle-N(H)CH2CH2OCH2CH2OH] (Ac-[Cha][Gly(1-amidinopiperidin-4-yl)][Tic][Nle]-X3) | – | – | 56.1 | 52.3 | –
5 | CSCC[C@H](NC(=O)[C@@H]1Cc2ccccc2CN1C(=O)[C@@H](NC(=O)[C@H](CC1CCCCC1)NC(C)=O)C1CCN(C(=N)N)CC1)C(=O)N(CCOCCO)Cc1ccccc1 [Compound P102, Ac-Cha-Gpg-Tic-Met-N(Bn)CH2CH2OCH2CH2OH] (Ac-[Cha][Gly(1-amidinopiperidin-4-yl)][Tic]M-X2) | 41.3 | 31.2 | – | – | –
6 | CCCC[C@H](NC(=O)[C@@H]1Cc2ccccc2CN1C(=O)[C@@H](NC(=O)[C@H](CC1CCCCC1)NC(C)=O)C1CCN(C(=N)N)CC1)C(=O)NCCc1ccccc1 [Compound P69, Ac-Cha-Gpg-Tic-Nle-N(H)CH2CH2Ph] (Ac-[Cha][Gly(1-amidinopiperidin-4-yl)][Tic][Nle]-NHPhenethyl) | 59 | 2 | 65.3 | 9 | efficacy in the EAE mouse model in terms of disease treatment, versus Arg compound ([3]; P69 at 125 nM compared to P82 at 250 nM): superior; efficacy in the EAE mouse model for multiple sclerosis prevention [3]: Efficacy; efficacy in the CIA mouse model for rheumatoid arthritis [4]: Efficacy; in-vivo immunosuppressive properties following co-immunisation with antigen as measured by T-cell proliferation ([5]; compared to the Arg-containing equivalent, antigen/mouse strain not stated in the legend): Superior in-vivo immunosuppressive properties
7 | CCCC[C@H](NC(=O)[C@@H]1Cc2ccccc2CN1C(=O)[C@@H](NC(=O)[C@H](CC1CCCCC1)NC(C)=O)C1CCN(C(=N)N)CC1)C(=O)N(CCOCCO)Cc1ccccc1 [Compound P101, Ac-Cha-Gpg-Tic-Nle-N(Bn)CH2CH2OCH2CH2OH] (Ac-[Cha][Gly(1-amidinopiperidin-4-yl)][Tic][Nle]-X2) | 49.7 | 41.1 | – | – | –
8 | CCCC[C@H](NC(=O)[C@@H]1Cc2ccccc2CN1C(=O)[C@@H](NC(=O)[C@H](CC1CCCCC1)NC(C)=O)C1CCN(C(=N)N)CC1)C(=O)NCc1ccccc1 [Compound P68, Ac-Cha-Gpg-Tic-Nle-N(H)Bn] (Ac-[Cha][Gly(1-amidinopiperidin-4-yl)][Tic][Nle]-NHBn) | −3.2 | 25.1 | 95.3 | 65.9 | –
9 | CSCC[C@H](NC(=O)C1c2ccccc2CN1C(=O)[C@H](CCCNC(=N)N)NC(=O)[C@H](CC1CCCCC1)NC(C)=O)C(N)=O (stereo partly drawn) [Compound P12-1, Ac-Cha-Arg-Disc-Met-NH2] (Ac-[Cha]R[ξDisc]M-NH2) | – | – | – | – | Stability (Arbitrary units) Cath L 4 h [1]: 101 Arbitrary units
10 | CCCC[C@H](NC(=O)[C@@H]1Cc2ccccc2CN1C(=O)[C@H](CCCNC(=N)N)NC(=O)[C@H](CC1CCCCC1)NC(C)=O)C(=O)N(C)Cc1ccccc1 [Compound P71, Ac-Cha-Arg-Tic-Nle-N(Me)Bn] (Ac-[Cha]R[Tic][Nle]-{NMe(benzyl)}) | 78.1 | 62.1 | 48.8 | 21.8 | –
11 | CSCC[C@H](NC(=O)[C@@H]1Cc2ccccc2CN1C(=O)[C@H](CCCNC(=N)N)NC(=O)[C@H](CC1CCCCC1)NC(C)=O)C(=O)N1CC[C@H](c2ccccc2)[C@H]1C(N)=O [Compound P31, Ac-Cha-Arg-Tic-Met-βPhPro-NH2] (Ac-[Cha]R[Tic]M[Pro(3R-Ph)]-NH2) | – | – | – | – | Stability (Arbitrary units) Cath L 4 h [1]: 103 Arbitrary units
12 | CSCC[C@H](NC(=O)[C@@H]1Cc2ccccc2CN1C(=O)[C@@H](NC(=O)[C@H](CC1CCCCC1)NC(C)=O)C1CCN(C(=N)N)CC1)C(=O)N1CC[C@H](c2ccccc2)[C@H]1C(=O)N[C@@H](CO)c1nc(C(=O)N(C)C)c(C(C)C)o1 [Compound P60, Ac-Cha-Gpg-Tic-Met-βPhPro-[S(oxaz)L]-NMe2] (Ac-[Cha][Gly(1-amidinopiperidin-4-yl)][Tic]M[Pro(3R-Ph)][X1]-NMe2) | – | – | 50.3 | 28.1 | –
13 | CSCC[C@H](NC(=O)C1c2ccccc2CN1C(=O)[C@@H](NC(=O)[C@H](CC1CCCCC1)NC(C)=O)C1CCN(C(=N)N)CC1)C(=O)N1CC[C@H](c2ccccc2)[C@H]1C(=O)N[C@@H](CO)c1nc(C(=O)N(C)C)c(C(C)C)o1 (stereo partly drawn) [Compound P41-1, Ac-Cha-Gpg-Disc-Met-βPhPro-[S(oxaz)L]-NMe2] (Ac-[Cha][Gly(1-amidinopiperidin-4-yl)][ξDisc]M[Pro(3R-Ph)][X1]-NMe2) | – | – | 50.1 | 21.6 | –
